Test results: PMC7897990, “TriTOX: A novel Trichomonas vaginalis assay platform for high-throughput screening of compound libraries” (International Journal for Parasitology: Drugs and Drug …, 2021)
Entries after “also recorded” stand apart in the source; their conditions may differ. Like-named read-outs stand apart in the source and are kept apart here. Values belong to the compound of their own block, whether it stands above or below them.

Tests used:
[1] = test system: Trichomonas vaginalis G3 trophozoites; conditions: for T. vaginalis HTS results / T. vaginalis HTS result in words: 384-well, 25 μL, 10,000 cells/mL, 48 h, biological duplicates; for T. vaginalis HTS results: 10% chromogen, single concentration; for T. vaginalis HTS result in words: hit = >50% inhibition; for T.vaginalis_Absorbance_Rep1: replicate 1, raw absorbance; for T.vaginalis_Absorbance_Rep2: replicate 2, raw absorbance
[2] = test system: T. foetus; experiment: Medium-throughput (MTS) confirmatory dose-response growth assay, T. foetus; assay type: cell-based, Tritrichomonas foetus; conditions: 48 h; for IC50: 96-well, 10,000 cells/mL in 50 μL, mean ± SEM, >10 = no appreciable activity at highest dose; for activity against T. foetus in MTS, in words: 10-point dilution series, 96-well
Protocol: (§1) For microtiter plate assays, trichomonads were grown in anaerobic conditions within GasPak EZ anaerobe pouches with fresh anaerobic sachets. Working reagent of the chromogen was phenol red (Sigma) in a 1% w/v working solution in phosphate buffered saline (PBS), which was filter sterilised. Chromogen absorbance was monitored at 570 nm on an absorbance microplate reader after plates were allowed to equilibrate in atmospheric conditions at room temperature for at least 5 min.
(§2) After absorbances were measured, data were processed as followed unless indicated otherwise in the text. […] Prism 8 (GraphPad) was used to plot dose-response curves and calculate IC50 values, using a least squares regression, log[inhibitor] vs normalised response (variable slope, four parameters) model. Where replicate plates were used, data for dose-response curves were plotted as the mean±SD of these replicates.
(§3) A selection of 17 compounds assayed in the high-throughput screen (HTS) for T. vaginalis which were available through BioAustralis were obtained for validation of inhibitory in/activity in our optimised medium-throughput format. For this, a 10-point serial dilution was used for drug-susceptibility testing to calculate IC50 values of ‘hit’ compounds. Mtz was used as a positive control. Each screen was performed with 3 technical replicates and a minimum of 2 biological replicates in both T. vaginalis and T. foetus using assay conditions of seeds of 10,000 cells/mL in 50 μL, with absorbance measured at 48 h. Dose response curves and IC50 were calculated for each compound as described above in Section 2.3.

[3] = test system: T. vaginalis; experiment: Medium-throughput (MTS) confirmatory dose-response growth assay, T. vaginalis; assay type: cell-based, Trichomonas vaginalis; conditions: for activity against T. vaginalis in MTS, in words: 10-point dilution series, 96-well; for activity against T. vaginalis in MTS, in words / IC50: 48 h; for IC50: 96-well, 10,000 cells/mL in 50 μL, mean ± SEM, >10 = no appreciable activity at highest dose; for species-specificity T. vaginalis vs T. foetus in MTS: comparison of MTS IC50 in both species
Protocol: as §1, §2, §3

[4] = test system: nontumorigenic neonatal foreskin fibroblast (NFF) cell line
[5] = test system: Trichomonas vaginalis G3 trophozoites; experiment: microbe, parasite or virus in culture; conditions: 48 h
[6] = HTS, parasite screen at 1 µg/mL, replicate 1
[7] = HTS, parasite screen at 1 µg/mL, replicate 2
[8] = NFF fibroblast screen at 5 µg/mL, A = active, I = inactive
[9] = HTS, parasite screen at 1 µg/mL
[10] = read-out: T.vaginalis_%inb_Rep1
[11] = read-out: T.vaginalis_%inb_Rep2

Compound: CC(C=CC1OC(=O)C=CC1C)=CC(C)CC=CC(C)=CC(C)C(=O)C(C)C(O)C(C)CC(C)=CC(=O)O (centres unmarked) [Leptomycin A, leptomycin A]
T. vaginalis HTS results [1]: I
IC50 [2]: > 10 µM
activity against T. vaginalis in MTS, in words [3]: true negatives
IC50 [3]: > 10 µM

Compound: CCC(C)CC1CCC(O)(C(C)(O)C(=O)NC2C(=O)N3NCCCC3C(=O)N(O)C(C)C(=O)NCC(=O)N3NCCCC3C(=O)N(O)C(C)C(=O)OC2C(C)C)OC1C (centres unmarked) [L 156602]
IC50 [2]: 0.44 ± 0.18 µM
activity against T. vaginalis in MTS, in words [3]: true positives
IC50 [3]: 0.059 ± 0.004 µM

Compound: CCC(=O)CCCCC[C@@H]1NC(=O)[C@H]2CCCCN2C(=O)[C@H]([C@@H](C)CC)NC(=O)[C@H](Cc2cn(OC)c3ccccc23)NC1=O [Apicidin, apicidin]
T. vaginalis HTS results [1]: I
T. vaginalis HTS result in words [1]: inactive in both T. vaginalis HTS replicates
activity against T. foetus in MTS, in words [2]: micromolar IC50 values
IC50 ([2]; Tritrichomonas foetus): 1.9 ± 0.2 µM
activity against T. vaginalis in MTS, in words [3]: confirmed active; also recorded: micromolar IC50 values
IC50 ([3]; Trichomonas vaginalis): 1.2 ± 0.1 µM

IC50 [2]: > 10 µM
IC50 [3]: > 10 µM
Compound: CC(C=CC(=O)NOC1OC(CO)C(O)C(O)C1O)=CC(C)C(=O)c1ccc(N(C)C)cc1 (centres unmarked) [Trichostatin C, trichostatin C, reference compound]
T. vaginalis HTS results [1]: I
T.vaginalis_%inb_Rep1 [1, 6]: 10.28%
T.vaginalis_%inb_Rep2 [1, 7]: 10.24%
activity against T. vaginalis in MTS, in words [3]: true negatives

Compound: Cn1ncnc2c(=O)n(C)c(=O)nc1-2 [Toxoflavin, toxoflavin, reference compound]
NFF_Activity [4, 8]: A (active (A) compounds having >25% inhibitory activity)
T. vaginalis HTS result in words [1]: partial hits
T.vaginalis_%inb_Rep1 [1, 6]: 5.72%
T.vaginalis_%inb_Rep2 [1, 7]: 100.00%
IC50 [2]: 4.1 ± 0.9 µM
activity against T. vaginalis in MTS, in words [3]: confirmed active
IC50 [3]: 3.1 ± 1.7 µM
species-specificity T. vaginalis vs T. foetus in MTS [3]: remained active against both T. vaginalis and T. foetus

Compound: O=c1c(-c2ccc(O)cc2)coc2cc(O)cc(O)c12 [Genistein]
NFF_Activity ([4]; NFF_NS1 screen at 5 µg/mL): I (otherwise these were reported as inactive (I))
T.vaginalis_Absorbance_Rep1 [1, 9]: 1.004
T.vaginalis_Absorbance_Rep2 [1, 9]: 0.828
inhibition of growth at 1 µg/mL [5, 10]: 15.3%
inhibition of growth at 1 µg/mL [5, 11]: 12.4%

Compound: Nc1ncnc2c1ccn2[C@@H]1O[C@H](CO)[C@@H](O)[C@H]1O [Tubercidin, tubercidin]
NFF_Activity [4, 8]: A (active (A) compounds having >25% inhibitory activity)
inhibition of growth at 1 µg/mL [5, 10]: 63.8%
inhibition of growth at 1 µg/mL [5, 11]: 76%
IC50 ([2]; Tritrichomonas foetus): > 10 µM
activity against T. vaginalis in MTS, in words [3]: true positives
IC50 ([3]; Trichomonas vaginalis): 2.4 ± 0.1 µM
species-specificity T. vaginalis vs T. foetus in MTS [3]: selective activity against T. vaginalis but not T. foetus

Compound: CCCCc1ccc(C(=O)O)nc1 [Fusaric acid]
NFF_Activity ([4]; NFF_NS1 screen at 5 µg/mL): I (otherwise these were reported as inactive (I))
T.vaginalis_Absorbance_Rep1 [1, 9]: 0.976
T.vaginalis_Absorbance_Rep2 [1, 9]: 0.881
inhibition of growth at 1 µg/mL [5, 10]: 13.9%
inhibition of growth at 1 µg/mL [5, 11]: 15.8%

Compound: CC(/C=C/C(=O)NO)=C\[C@@H](C)C(=O)c1ccc(N(C)C)cc1 [Trichostatin A, trichostatin A, reference compound]
NFF_Activity [4, 8]: I (otherwise these were reported as inactive (I))
T. vaginalis HTS result in words [1]: supported the anti-trichomonal activity
T.vaginalis_%inb_Rep1 [1, 6]: 71.95%
T.vaginalis_%inb_Rep2 [1, 7]: 67.89%
IC50 [2]: 0.048 ± 0.006 µM
activity against T. vaginalis in MTS, in words ([3]; listed as TSA): true positives
IC50 [3]: 0.22 ± 0.06 µM

Compound: COc1ccc2cc1Oc1cc(ccc1O)[C@H](O)[C@]13SS[C@@]4(C(=O)N1C)[C@H](O)C1=COC=C[C@H](OC2=O)[C@H]1N4C3=O [Emestrin, emestrin, reference compound]
NFF_Activity ([4]; NFF_NS1 screen at 5 µg/mL): A (active (A) compounds having >25% inhibitory activity)
T. vaginalis HTS result in words [1]: partial hits
T.vaginalis_%inb_Rep1 [1, 6]: 12.22%
T.vaginalis_Absorbance_Rep1 [1, 9]: 0.943
T.vaginalis_%inb_Rep2 [1, 7]: 63.12%
T.vaginalis_Absorbance_Rep2 [1, 9]: 1.619
activity against T. foetus in MTS, in words [2]: inconsistent between biological replicates
IC50 [2]: 7.3 ± 3.3 µM
activity against T. vaginalis in MTS, in words [3]: inactive
IC50 [3]: > 10 µM

Compound: C/C(=C\c1csc(C)n1)[C@@H]1C[C@@H]2O[C@]2(C)CCC[C@H](C)[C@H](O)[C@@H](C)C(=O)C(C)(C)[C@@H](O)CC(=O)O1 [epothilone B, reference compound]
NFF_Activity ([4]; NFF_NS1 screen at 5 µg/mL): I (otherwise these were reported as inactive (I))
T.vaginalis_Absorbance_Rep1 [1, 9]: 2.179
T.vaginalis_Absorbance_Rep2 [1, 9]: 1.684
selectivity: anti-trichomonal vs anti-tumour (NS-1) and cytotoxic (NFF) activity ([1]; single concentration screens of the same library, NS-1/NFF active if >25% inhibition): selective for T. vaginalis
inhibition of growth at 1 µg/mL [5, 10]: 74.9%
inhibition of growth at 1 µg/mL [5, 11]: 67.3%

IC50 [3]: 2.7 ± 0.9 µM
Compound: COC(=O)c1ccc(CCCCCCCCCCc2ccc(C(=O)OC)nc2)cn1 [Penicolinate A, penicolinate A]
T.vaginalis_%inb_Rep1 ([1]; HTS replicate 1, parasite screen 1 µg/mL): 78.85%
T.vaginalis_%inb_Rep2 ([1]; HTS replicate 2, parasite screen 1 µg/mL): 85.50%
activity against T. foetus in MTS, in words [2]: weak activity
activity against T. vaginalis in MTS, in words [3]: true positives
species-specificity T. vaginalis vs T. foetus in MTS [3]: selective activity against T. vaginalis but not T. foetus

Compound: C=CC(C)(C)c1[nH]c2c(CC=C(C)C)cc(CC=C(C)C)cc2c1C[C@@H]1NC(=O)[C@H](C)NC1=O [Echinulin]
NFF_Activity ([4]; NFF_NS1 screen at 5 µg/mL): I (otherwise these were reported as inactive (I))
T.vaginalis_Absorbance_Rep1 [1, 9]: 1.001
T.vaginalis_Absorbance_Rep2 [1, 9]: 0.85
inhibition of growth at 1 µg/mL [5, 10]: 15.7%
inhibition of growth at 1 µg/mL [5, 11]: 16.6%

Compound: O=[N+]([O-])c1ncc[nH]1 [Azomycin, azomycin]
T. vaginalis HTS results [1]: I
T. vaginalis HTS result in words [1]: inactive
IC50 ([2]; Tritrichomonas foetus): 8.6 ± 4.3 µM
activity against T. vaginalis in MTS, in words [3]: confirmed active; also recorded: inconsistent activity
IC50 ([3]; Trichomonas vaginalis): 9.7 ± 5.5 µM

Compound: C[C@H]1C(=O)N2c3ccccc3[C@@]3(O)C[C@@H]4C(=O)N[C@](C)(c5nc6ccccc6c(=O)n54)N1[C@@H]23 [Fumiquinazoline D]
NFF_Activity ([4]; NFF_NS1 screen at 5 µg/mL): I (otherwise these were reported as inactive (I))
T.vaginalis_Absorbance_Rep1 [1, 9]: 0.964
T.vaginalis_Absorbance_Rep2 [1, 9]: 0.84
inhibition of growth at 1 µg/mL [5, 10]: 13.7%
inhibition of growth at 1 µg/mL [5, 11]: 15.9%

Compound: COc1cc(C)c(C(=O)Oc2cc(C)c(C(=O)O)c(O)c2C)c(OC)c1C [Diffractaic acid]
NFF_Activity ([4]; NFF_NS1 screen at 5 µg/mL): I (otherwise these were reported as inactive (I))
T.vaginalis_Absorbance_Rep1 [1, 9]: 0.965
T.vaginalis_Absorbance_Rep2 [1, 9]: 0.79
inhibition of growth at 1 µg/mL [5, 10]: 13.8%
inhibition of growth at 1 µg/mL [5, 11]: 12.3%

Compound: CCC(=C/[C@H](C)C/C=C/C(C)=C/[C@@H](C)C(=O)[C@@H](C)[C@H](O)[C@@H](C)C/C(C)=C/C(=O)O)/C=C/[C@@H]1OC(=O)C=C[C@@H]1C [Leptomycin B, leptomycin B]
IC50 ([2]; Tritrichomonas foetus): > 10 µM
activity against T. vaginalis in MTS, in words [3]: no activity
IC50 ([3]; Trichomonas vaginalis): > 10 µM

Compound: COc1cc(C)c(C(=O)Oc2cc(C)c(C(=O)O)c(O)c2)c(O)c1 [Evernic acid]
NFF_Activity ([4]; NFF_NS1 screen at 5 µg/mL): I (otherwise these were reported as inactive (I))
T.vaginalis_Absorbance_Rep1 [1, 9]: 0.922
T.vaginalis_Absorbance_Rep2 [1, 9]: 0.775
inhibition of growth at 1 µg/mL [5, 10]: 11.5%
inhibition of growth at 1 µg/mL [5, 11]: 11.2%

Compound: CSC[S@+]([O-])C[C@H](CO)NC(=O)/C=C/c1c(C)[nH]c(=O)[nH]c1=O [Sparsomycin, sparsomycin]
IC50 ([2]; Tritrichomonas foetus): > 10 µM
activity against T. vaginalis in MTS, in words [3]: true positives
IC50 ([3]; Trichomonas vaginalis): 2.3 µM
species-specificity T. vaginalis vs T. foetus in MTS [3]: selective activity against T. vaginalis but not T. foetus

Compound: CC[C@@H]1C[C@H]2CC[C@H](O2)[C@H](C)C(=O)O[C@@H](C)C[C@@H]2CC[C@@H](O2)[C@@H](C)C(=O)O[C@H](CC)C[C@H]2CC[C@H](O2)[C@H](C)C(=O)O[C@@H](C)C[C@@H]2CC[C@@H](O2)[C@@H](C)C(=O)O1 [Dinactin]
NFF_Activity ([4]; NFF_NS1 screen at 5 µg/mL): I (otherwise these were reported as inactive (I))
T.vaginalis_Absorbance_Rep1 [1, 9]: 0.868
T.vaginalis_Absorbance_Rep2 [1, 9]: 0.733
inhibition of growth at 1 µg/mL [5, 10]: 8.56%
inhibition of growth at 1 µg/mL [5, 11]: 8.17%
